≈ marks a conversion by molar mass, not a printed value. Read-outs that look alike come from different tables or passages of the source.

Results on one compound are retold here after patent publication US20190054109A1, “An antiviral composition and a method for application thereof” (ALLA CHEM, LLC, priority 2017, published 2019).

In one data set the test system is gT1b NS5B HCV. Put plainly: Anti-HCV activity in Huh7 cell line stably transfected with an HCV replicon. The data set is classed as cell-based, hepatitis C virus (HCV) genotype 1b. The protocol: Evaluation of anti-HCV activity and cytotoxicity for compositions comprising the prodrug of formula 1.1 and Sovaldi®. The antiviral activity of tested compositions comprising the prodrug was evaluated using an Huh7 human hepatocellular carcinoma cell line stably transfected with an HCV replicon. A cell suspension in a complete culture medium (DMEM 1×, Cellgro; cat. #10-013-CV) was transferred into 96-well plates (50 μl per well) with a final density of 7500 cells per well. The serial dilutions of tested prodrugs were prepared from a fresh 200-fold generic solution in DMSO with 11 concentration points and 3-fold dilution for each step starting from 20 nM in a complete medium and were used as 2-fold solutions in two replicates. Minimum 4 hours after planting the cells, 50 μl of serial prodrug dilutions was added to each well. The final prodrug concentration varied from 10 nM to 0.1 pM and that of DMSO, 0.5%. The plate with cells was incubated for 3 days at 37° C. under humidified 5% CO2. Upon completion of incubation, the medium was removed by turning the plate over and shaking it carefully. The cells were fixed for one minute with 100 μl of a 1:1 acetone:methanol solution, washed 3 times with a phosphate buffer (PBS), and blocked for 1 h at room temperature using a 10% fetal bovine serum (FBS) in PBS (150 μl/well). The cells were washed 3 times with PBS and incubated for 2 h at 37° C. with anti-NS5B HCV antibodies (100 μl/well) using Affinity BioReagents (cat. # MA1-080) and diluting the generic solution (1 mg/ml) in a ratio of 1:4000 in 10% FBS-PBS. The cells were washed 3 times with PBS and developed by an OPD solution (100 μl/well) using for each plate one OPD tablet dissolved in a citrate/phosphate buffer (12 ml)), whereto 5 μl of 30% H2O2 was added, for 30 minutes in the dark at room temperature. The reaction was stopped by 2N H2SO4 (100 μl/well), and OD490 was measured using the multifunctional reader Victor^3 V 1420 (Perkin Elmer). The values of EC50 for tested prodrugs were measured from an activity curve plotted using the GraphPad Prizm software.

Data set [1] can be described thus: Kinetic solubility (MultiScreen Solubility filter plate, UV). Format: physicochemical. Particulars: aqueous buffer with 2% DMSO, kinetic from dmso stock, 260 nm. As to the method:
The tested compound was dissolved in DMSO to reach a 10-mM concentration and then poured into an aqueous solvent (a phosphate buffer, water, or universal buffers of different pH values) to bring the concentration down to 200 μM. The resulting solution placed in a 96-well filter plate (Millipore's MultiScreen Solubility Filter Plate) was incubated for an hour at room temperature on a shaker, and the residue was filtered off in vacuo. The absorption spectrum of the compound was recorded on a spectrophotometer in a range of 240-400 nm with a 10-nm increment. […] The range of estimated concentrations was 3-200 μM. The test procedure was performed in duplicate.
Six standard samples with concentrations of 0, 3.125, 12.5, 50, 100, and 200 μM were prepared in the wells of a UV 96-well plate by adding 4 μl of corresponding 50× stock solutions in DMSO to 196 μl of a buffer comprising 40% acetonitrile. The concentration of DMSO in all points was constant and equal to 2% (v/v).
To plot calibration curves, the optical spectrum of the UV plate was recorded in a wavelength range of 250 400 nm with a 10-nm increment. Based on the spectral data for each compound, wavelengths were selected to meet the following criteria:
For minimum compound concentration, OD>0.1 (AU);
For maximum compound concentration, OD<2.0.
For each compound, a calibration curve was plotted with OD at selected wavelength as a function of concentration.
Solubility was evaluated in a MultiScreen Solubility (Millipore Corp.) filter plate as follows:
Into each well of the MultiScreen Solubility filter plate, 196 μl of a buffer (without acetonitrile) and 4 μl of a 10-mM compound in DMSO or 4 μl of DMSO (for a blank matrix) were added. The plate was incubated for one hour on a shaker (400 rpm) at room temperature.
The resulting solutions were filtered off through the filter plate by means of vacuum (10″ Hg) into a polypropylene plate with a U-shaped bottom.
From the U-bottom plate, the filtrate (120 μl/well) was transferred into a new UV plate, where to acetonitrile (80 μl/well) was added.
The optical density of resulting solutions for a pre-selected wavelength was measured for each compound.
The final compound concentration in the filtrate was computed as follows:
Cfiltrate=(ODλFiltrate-ODλBlank)/Slope×1.67,

A short description of another data set: in vitro. The note with it: human, plasma. As to the method: Evaluation of stability in biological matrix for compositions comprising the prodrug of formula 1.1. Initial compositions comprising the prodrug of formula 1.1 (the tested compounds) were prepared with a concentration of 10 mM in DMSO. From said compositions, 100-fold working solutions were prepared with a concentration of 100 μM in a mixture of acetonitrile: water with a volumetric ratio of 1:1.
The incubation was performed in a Vortemp56 shaking incubator at 37° C. with stirring at a rate of 300 rev/min. […] The samples were then centrifuged, and the supernatant (150 μl) was sampled for analysis […]. The incubation was performed in two replicates, with each sample measured twice.
Samples were analyzed using an HPLC-MS/MS technique developed for each tested prodrug, wherein the chromatographic system 1290 Infinity II (Agilent Technologies) was combined with the tandem mass spectrometer QTRAP5500 (AB Sciex). […] Scanning in a total ion current mode (MS1) allowed us to identify a molecular ion for each compound, and basic product ions were recorded in MS2 mode. […] In quantitative chromatogram processing, the most intensive MRM transition was used for the analyte and the internal standard. […]

[2] abbreviates: Hepatitis C virus, Huh-7, gT1b HCV replicon in Huh7, 10% FBS.

`C[C@H](N[P@](=O)(OC[C@H]1O[C@@H](n2ccc(=O)[nH]c2=O)[C@](C)(F)[C@@H]1O)Oc1ccccc1)C(=O)OC1CCC1` [Prodrug 1.1, cyclobutyl (S)-2-{(S)-[(2R,3R,4R,5R)-5-(3,4-dihydro-2,4-dioxo-2H-pyrimidin-1-yl)-3-hydroxy-4-methyl-4-fluoro-tetrahydro-furan-2-ylmethoxy]-phenoxy-phosphorylamino}-propanoate]: the EC50 (usually the concentration that produces a half-maximal response) in the data set with gT1b NS5B HCV (setting [2]) lay within 0.015 to 0.027 µM. The 90% effect level with gT1b NS5B HCV (setting [2]) (EC90) was put at 0.128 µM. Further, the “activity against gT1b HCV relative to Sovaldi” value in the data set on gT1b NS5B HCV (comparison of EC50/EC90) is recorded as “more than three times more active”. The solubility (in general, the dissolved amount per volume that the medium holds) at 1 h was 630 µg/mL (≈ 1160 µM) in data set [1] (pH 2, aqueous buffer, recrystallized from acetic acid, polycrystal, read-out: Solubility at pH 2); 180 µg/mL (≈ 332 µM) in data set [1] (pH 2, aqueous buffer, recrystallized from dimethyl sulfoxide, crystal, read-out: Solubility at pH 2); 200 µg/mL (≈ 369 µM) in data set [1] (pH 2, aqueous buffer, recrystallized from ethanol, polycrystal, read-out: Solubility at pH 2); 250 µg/mL (≈ 462 µM) in data set [1] (pH 2, aqueous buffer, recrystallized from ethyl acetate and methyl-tert-butyl ether mixture, polycrystal, read-out: Solubility at pH 2); 220 µg/mL (≈ 406 µM) in data set [1] (pH 2, aqueous buffer, recrystallized from ethyl acetate, polycrystal, read-out: Solubility at pH 2); 670 µg/mL (≈ 1240 µM) in data set [1] (pH 7, aqueous buffer, recrystallized from acetic acid, polycrystal, read-out: Solubility at pH 7). Moreover, the solubility at 1 h in data set [1] (pH 7, aqueous buffer, recrystallized from dimethyl sulfoxide, crystal, read-out: Solubility at pH 7) came to 180 µg/mL (≈ 332 µM); in data set [1] (pH 7, aqueous buffer, recrystallized from ethanol, polycrystal, read-out: Solubility at pH 7), 200 µg/mL (≈ 369 µM); in data set [1] (pH 7, aqueous buffer, recrystallized from ethyl acetate and methyl-tert-butyl ether mixture, polycrystal, read-out: Solubility at pH 7) it was 240 µg/mL (≈ 443 µM); in data set [1] (pH 7, aqueous buffer, recrystallized from ethyl acetate, polycrystal, read-out: Solubility at pH 7), 220 µg/mL (≈ 406 µM). Moreover, the half-life (as a rule, how long it takes for the measured level to halve) at 1 μM in the data set “in vitro” was above 24 h.
